Assay results reported in EP1953147A1, “HETEROCYCLIC COMPOUND AND MEDICINAL APPLICATION THEREOF” (priority 2005, dated 2007).

test system: ΔG/SEAP/HCV E1E2; test: Effect of test substance on cell infection with HCV pseudotype virus (SEAP reporter assay in HepG2 cells); assay type: cell-based; conditions: Hepatitis C virus

| Structure (SMILES) | IC50 |
| --- | --- |
| Cc1cc(C)cc(-c2nn(-c3cc(-c4cccnn4)ccc3C(F)(F)F)c(=O)c3c2CCN3)c1 [Example 10, 4-(3,5-dimethyl-phenyl)-6-(5-pyridazin-3-yl-2-trifluoromethyl-phenyl)-1,2,3,6-tetrahydro-pyrrolo[2,3-d]pyridazin-7-one] | < 100 nM |
| COc1cc(OC)cc(-c2nn(-c3cc(N4CC[C@H](O)C4)ccc3C(F)(F)F)c(=O)c3c2CCN3CC#N)c1 [Example 48, {4-(3,5-dimethoxy-phenyl)-6-[5-((S)-3-hydroxy-pyrrolidin-1-yl)-2-trifluoromethyl-phenyl]-7-oxo-2,3,6,7-tetrahydro-pyrrolo[2,3-d]pyridazin-1-yl}-acetonitrile] | < 100 nM |
| CCCC(=O)Nc1ccc(C(F)(F)F)c(-n2nc(-c3cc(OC)cc(OC)c3)c3c(c2=O)CCC3)c1 [Example 84, N-{3-[4-(3,5-dimethoxy-phenyl)-1-oxo-1,5,6,7-tetrahydro-cyclopenta[d]pyridazin-2-yl]-4-trifluoromethyl-phenyl}-butyramide] | < 100 nM |
| COc1cc(OC)cc(-c2nn(-c3cccc(N4CC[C@H](O)C4)c3)c(=O)c3c2CCN3)c1 [Example 52, 4-(3,5-dimethoxy-phenyl)-6-[3-((S)-3-hydroxy-pyrrolidin-1-yl)-phenyl]-1,2,3,6-tetrahydro-pyrrolo[2,3-d]pyridazin-7-one] | 100 to 10000 nM |
| COc1cccc(-c2nn(-c3cc(N4CC[C@H](O)C4)ccc3C(F)(F)F)c(=O)c3c2CCC3)c1 [Example 58, 2-[5-((S)-3-hydroxy-pyrrolidin-1-yl)-2-trifluoromethyl-phenyl]-4-(3-methoxy-phenyl)-2,5,6,7-tetrahydro-cyclopenta[d]pyridazin-1-one] | < 100 nM |
| CNC(=O)CNc1ccc(C(F)(F)F)c(-n2nc(-c3cc(OC)cc(OC)c3)c3c(c2=O)CCC3)c1 [Example 124, 2-{3-[4-(3,5-dimethoxy-phenyl)-1-oxo-1,5,6,7-tetrahydro-cyclopenta[d]pyridazin-2-yl]-4-trifluoromethyl-phenylamino}-N-methyl-acetamide] | < 100 nM |
| COc1cc(OC)cc(-c2nn(-c3cc(NCCN(C)C)ccc3C(F)(F)F)c(=O)c3c2CCC3)c1 [Example 116, 4-(3,5-dimethoxy-phenyl)-2-[5-(2-dimethylamino-ethylamino)-2-trifluoromethyl-phenyl]-2,5,6,7-tetrahydro-cyclopenta[d]pyridazin-1-one] | < 100 nM |
| COc1cccc(-c2nn(-c3cc(N4CC[C@H](O)C4)ccc3C(F)(F)F)c(=O)c3c2CCN3)c1 [Example 43, 6-[5-((S)-3-hydroxy-pyrrolidin-1-yl)-2-trifluoromethyl-phenyl]-4-(3-methoxy-phenyl)-1,2,3,6-tetrahydro-pyrrolo[2,3-d]pyridazin-7-one] | < 100 nM |
| COc1cc(OC)cc(-c2nn(-c3cc(N4CC[C@H](O)C4)ccc3C(F)(F)F)c(=O)c3c2CCN3C)c1 [Example 54, 4-(3,5-dimethoxy-phenyl)-6-[5-((S)-3-hydroxy-pyrrolidin-1-yl)-2-trifluoromethyl-phenyl]-1-methyl-1,2,3,6-tetrahydro-pyrrolo[2,3-d]pyridazin-7-one] | < 100 nM |
| COc1cc(OC)cc(-c2nn(-c3cc(NCCCC(=O)N(C)C)ccc3C(F)(F)F)c(=O)c3c2CCC3)c1 [Example 154, 4-{3-[4-(3,5-dimethoxy-phenyl)-1-oxo-1,5,6,7-tetrahydro-cyclopenta[d]pyridazin-2-yl]-4-trifluoromethyl-phenylamino}-N,N-dimethyl-butyramide] | < 100 nM |
| COc1cc(OC)cc(-c2nn(-c3cc(NCC(=O)O)ccc3C(F)(F)F)c(=O)c3c2CCC3)c1 [Example 97, {3-[4-(3,5-dimethoxy-phenyl)-1-oxo-1,5,6,7-tetrahydro-cyclopenta[d]pyridazin-2-yl]-4-trifluoromethyl-phenylamino}-acetic acid] | < 100 nM |
| CCCCNC(=O)CN1CCc2c(-c3cc(OC)cc(OC)c3)nn(-c3cc(N4CC[C@H](O)C4)ccc3C(F)(F)F)c(=O)c21 [Example 34, N-butyl-2-{4-(3,5-dimethoxy-phenyl)-6-[5-((S)-3-hydroxy-pyrrolidin-1-yl)-2-trifluoromethyl-phenyl]-7-oxo-2,3,6,7-tetrahydro-pyrrolo[2,3-d]pyridazin-1-yl}-acetamide] | < 100 nM |
| COc1cc(OC)cc(-c2nn(-c3cc(N4CC[C@H](O)C4)ccc3F)c(=O)c3c2CCC3)c1 [Example 42, 4-(3,5-dimethoxy-phenyl)-2-[2-fluoro-5-((S)-3-hydroxy-pyrrolidin-1-yl)-phenyl]-2,5,6,7-tetrahydro-cyclopenta[d]pyridazin-1-one] | 100 to 10000 nM |
| Cc1cc(C)cc(-c2nn(-c3cc(-c4cccnn4)ccc3C(F)(F)F)c(=O)c3c2CCC3)c1 [Example 8, 4-(3,5-dimethyl-phenyl)-2-(5-pyridazin-3-yl-2-trifluoromethyl-phenyl)-2,5,6,7-tetrahydro-cyclopenta[d]pyridazin-1-one] | < 100 nM |
| CNC(=O)CCNc1ccc(C(F)(F)F)c(-n2nc(-c3cc(OC)cc(OC)c3)c3c(c2=O)CCC3)c1 [Example 138, 3-{3-[4-(3,5-dimethoxy-phenyl)-1-oxo-1,5,6,7-tetrahydro-cyclopenta[d]pyridazin-2-yl]-4-trifluoromethyl-phenylamino}-N-methyl-propionamide] | < 100 nM |
| COc1cc(OC)cc(-c2nn(-c3cc(NC(C)CO)ccc3C(F)(F)F)c(=O)c3c2CCC3)c1 (centres unmarked) [Example 131, 4-(3,5-dimethoxy-phenyl)-2-[5-(2-hydroxy-1-methyl-ethylamino)-2-trifluoromethyl-phenyl]-2,5,6,7-tetrahydro-cyclopenta[d]pyridazin-1-one] | < 100 nM |
| CCOc1ccc(C(F)(F)F)c(-n2nc(-c3cc(OC)cc(OC)c3)c3c(c2=O)CCC3)c1 [Example 62, 4-(3,5-dimethoxy-phenyl)-2-(5-ethoxy-2-trifluoromethyl-phenyl)-2,5,6,7-tetrahydro-cyclopenta[d]pyridazin-1-one] | < 100 nM |
| COc1cc(OC)cc(-c2nn(-c3cc(N4CC[C@H](O)C4)ccc3C(F)(F)F)c(=O)c3c2CCN3CC(=O)NCCCCNC(C)=O)c1 [Example 44, N-(4-acetylamino-butyl)-2-{4-(3,5-dimethoxy-phenyl)-6-[5-((S)-3-hydroxy-pyrrolidin-1-yl)-2-trifluoromethyl-phenyl]-7-oxo-2,3,6,7-tetrahydro-pyrrolo[2,3-d]pyridazin-1-yl}-acetamide] | < 100 nM |
| COc1cc(OC)cc(-c2nn(-c3cc(NCC(C)O)ccc3C(F)(F)F)c(=O)c3c2CCC3)c1 (centres unmarked) [Example 132, 4-(3,5-dimethoxy-phenyl)-2-[5-(2-hydroxy-propylamino)-2-trifluoromethyl-phenyl]-2,5,6,7-tetrahydro-cyclopenta[d]pyridazin-1-one] | < 100 nM |
| COc1cc(OC)cc(-c2nn(-c3cc(N(C)CCCO)ccc3C(F)(F)F)c(=O)c3c2CCC3)c1 [Example 145, 4-(3,5-dimethoxy-phenyl)-2-{5-[(3-hydroxypropyl)-methyl-amino]-2-trifluoromethyl-phenyl}-2,5,6,7-tetrahydro-cyclopenta[d]pyridazin-1-one] | < 100 nM |
| COc1cc(OC)cc(-c2nn(-c3cc(N4CC[C@H](O)C4)ccc3N(C)C)c(=O)c3c2CCC3)c1 [Example 1-6, 4-(3,5-dimethoxy-phenyl)-2-[2-dimethylamino-5-((S)-3-hydroxy-pyrrolidin-1-yl)-phenyl]-2,5,6,7-tetrahydro-cyclopenta[d]pyridazin-1-one] | 100 to 10000 nM |
| COc1cc(C)cc(-c2nn(-c3cc(-c4cccnn4)ccc3C(F)(F)F)c(=O)c3c2CC(C)N3)c1 (centres unmarked) [Example 15, 4-(3-methoxy-5-methyl-phenyl)-2-methyl-6-(5-pyridazin-3-yl-2-trifluoromethyl-phenyl)-1,2,3,6-tetrahydro-pyrrolo[2,3-d]pyridazin-7-one] | < 100 nM |
| COc1cc(C)cc(-c2nn(-c3cc(N4CC[C@@H](O)C4)ccc3C(F)(F)F)c(=O)c3c2CCN3)c1 [Example 22, 6-[5-((R)-3-hydroxy-pyrrolidin-1-yl)-2-trifluoromethyl-phenyl]-4-(3-methoxy-5-methyl-phenyl)-1,2,3,6-tetrahydro-pyrrolo[2,3-d]pyridazin-7-one] | < 100 nM |
| CCCOc1ccc(C(F)(F)F)c(-n2nc(-c3cc(OC)cc(OC)c3)c3c(c2=O)CCC3)c1 [Example 53, 4-(3,5-dimethoxy-phenyl)-2-(5-propoxy-2-trifluoromethyl-phenyl)-2,5,6,7-tetrahydro-cyclopenta[d]pyridazin-1-one] | < 100 nM |
| COc1cc(OC)cc(-c2nn(-c3cc(N4CC[C@H](O)C4)ccc3C(F)(F)F)c(=O)c3c2CCN3CC(=O)NCCNC(C)=O)c1 [Example 39, N-(2-acetylamino-ethyl)-2-{4-(3,5-dimethoxy-phenyl)-6-[5-((S)-3-hydroxy-pyrrolidin-1-yl)-2-trifluoromethyl-phenyl]-7-oxo-2,3,6,7-tetrahydro-pyrrolo[2,3-d]pyridazin-1-yl}-acetamide] | < 100 nM |
| COc1cc(OC)cc(-c2nn(-c3cc(Cl)ccc3C(F)(F)F)c(=O)c3c2CCN3)c1 [Example 51, 6-(5-chloro-2-trifluoromethyl-phenyl)-4-(3,5-dimethoxy-phenyl)-1,2,3,6-tetrahydro-pyrrolo[2,3-d]pyridazin-7-one] | 100 to 10000 nM |
| COc1cc(OC)cc(-c2nn(-c3cc(NCCC4CC4)ccc3C(F)(F)F)c(=O)c3c2CCC3)c1 [Example 147, 2-[5-(2-cyclopropyl-ethylamino)-2-trifluoromethyl-phenyl]-4-(3,5-dimethoxy-phenyl)-2,5,6,7-tetrahydro-cyclopenta[d]pyridazin-1-one] | < 100 nM |
| O=c1c2c(c(-c3ccccc3F)nn1-c1cc(N3CC[C@H](O)C3)ccc1C(F)(F)F)CCC2 [Example 105, 4-(2-fluoro-phenyl)-2-[5-((S)-3-hydroxy-pyrrolidin-1-yl)-2-trifluoromethyl-phenyl]-2,5,6,7-tetrahydro-cyclopenta[d]pyridazin-1-one] | 100 to 10000 nM |
| O=c1c2c(c(-c3ccc(Br)cc3)nn1-c1cc(N3CC[C@H](O)C3)ccc1C(F)(F)F)CCC2 [Example 90, 4-(4-bromo-phenyl)-2-[5-((S)-3-hydroxy-pyrrolidin-1-yl)-2-trifluoromethyl-phenyl]-2,5,6,7-tetrahydro-cyclopenta[d]pyridazin-1-one] | < 100 nM |
